Measurements published in patent US4973668A, “Variants of alpha 1-antitrypsin which are useful, in particular, as kallikrein inhibitors” (Transgene S.A., priority 1986, dated 1990).
“Also recorded” adds a separate entry of the source.

How the values were obtained:
[1] = system: human neutrophil elastase; test: inhibition of human neutrophil elastase by E. coli extracts; type: biochemical; details: clarified sonicated E. coli extracts; FIG. 1; compared with normal (Met358)alpha1-AT
Description: Clarified sonicated extracts were prepared from induced cultures of E. coli TGE900 containing one of the above three plasmids.
Aliquots of extracts are tested for their capacity to inhibit human neutrophil elastase (this technique having already been described).

[2] = system: human plasma kallikrein; test: antikallikrein activity, residual hydrolysis of chromozyme PK at 410 nm; type: biochemical
Description: The antikallikrein activity is assessed by measuring at 410 nm the residual extent of hydrolysis of chromosyme PK (benzoyl-Pro-Pre-Arg-4-nitroanilide acetate, Boehringer Mannheim).
2.6 pmol of human plasma kallikrein are preincubated at 37° C. with an increasing amount of inhibitor in 0.1 M Na phosphate/0.15 M NaCl buffer. After 30 minutes, the reaction is stopped by adding […] of substrate (final concentration 0.5 mM) and the residual enzyme activity is determined.

[3] = system: human thrombin; test: thrombin inhibition curves; type: biochemical; details: FIG. 3; comparison with alpha1-AT(Arg358)
[4] = system: human thrombin; details: general statement on the earlier variant; cited from earlier work
[5] = system: kallikrein; details: ratio versus C1 inhibitor; cited from earlier work
[6] = system: factor XIIF; details: ratio versus C1 inhibitor; cited from earlier work

Row | Substance | inhibition of neutrophil elastase [1] | inhibition of kallikrein ([2]; 2.6 pmol kallikrein, 37° C., 30 minutes preincubation, FIG. 2) | inhibition of kallikrein ([2]; 2.6 pmol kallikrein, 37° C., 30 minutes preincubation; FIG. 2; Arg^358) alpha1 -AT) | inhibition of thrombin [3] | antithrombin activity [4] | activity in inactivation of kallikrein relative to C1 inhibitor [5] | activity in inactivation of factor XIIF relative to C1 inhibitor [6]
1 | (Ala^357, Arg^358)alpha1 -AT: variant of human alpha1-antitrypsin, Pro357 replaced by Ala and Met358 by Arg, expressed in E. coli from plasmid pTG1946 | incapable of inhibiting | very much improved | capable of rapidly inhibiting | very weak; also recorded: only very weakly |  |  | 
2 | (Arg^358)alpha1 -AT: human alpha1-antitrypsin variant with Met358 replaced by arginine, described in WO 86/00,337; plasmid pTG1900 |  |  |  |  | very substantial | 4.1 times | 11.5 times
